According to patent publication US9663464B2, “Carbazole derivatives acting on 5-HT7 receptor” (KOREA INSTITUTE OF SCIENCE AND TECHNOLOGY, priority 2015, dated 2017):
Structures can show the parent of a compound that is named as a salt.

How the values were obtained:
[1] = target: T1, human gene recombinant 5-HT7 receptor expressed in CHO cells (Homo sapiens, UniProt P34969); assay: Binding affinity for the 5-HT7 serotonin receptor ([3H]LSD radioligand)
T1 construct: expressed in transfected cells; host or cells: CHO cells (membrane preparation)
T1 sequence (P34969 whole entry): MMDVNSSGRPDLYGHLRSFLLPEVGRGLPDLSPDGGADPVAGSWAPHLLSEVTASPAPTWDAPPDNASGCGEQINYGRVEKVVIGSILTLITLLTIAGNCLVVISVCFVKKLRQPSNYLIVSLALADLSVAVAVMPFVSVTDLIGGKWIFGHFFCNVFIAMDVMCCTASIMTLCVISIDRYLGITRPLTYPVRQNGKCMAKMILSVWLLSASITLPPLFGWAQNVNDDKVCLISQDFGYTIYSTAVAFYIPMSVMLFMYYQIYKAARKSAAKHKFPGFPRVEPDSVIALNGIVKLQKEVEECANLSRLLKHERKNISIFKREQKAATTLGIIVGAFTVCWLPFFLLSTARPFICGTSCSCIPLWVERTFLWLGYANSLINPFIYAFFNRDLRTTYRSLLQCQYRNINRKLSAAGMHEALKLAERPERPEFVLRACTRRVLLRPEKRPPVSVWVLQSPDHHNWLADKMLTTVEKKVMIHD
Method: In this example, the human gene recombinant 5-HT7 receptor expressed in CHO cells was used. 1 nM [^3H]LSD, 5-HT7 receptor membrane (15 μg/well), a test drug, 10 mM MgCl2, 50 mM Tris-HCl buffer (pH 7.4) containing 0.1 mM EDTA, etc. were added to a vessel until the final volume reached 0.25 ml. The test drug was used at various concentrations. The mixture was cultured at 25° C. for 90 min. The culture was rapidly filtered through a Whatman GF/C glass fiber filter, which had been previously wetted with 0.3% polyethyleneimine using a Brandel harvester, to quench the reaction. The reaction mixture was washed with cold 50 mM Tris-HCl buffer. The filter was covered with MeltiLex, sealed in a sample bag, and dried in an oven. Counting was performed using MicroBeta (Wallac) and nonspecific binding was measured in the presence of […]. The K value of the test drug was obtained from nonlinear regression analysis (GraphPad Prism Program, San Diego, USA) of isotherms obtained by repeatedly performing the experiment on the drug at 10-11 stage concentrations in two test tubes (each twice).
The % inhibition values of the inventive compounds having different Y structures at a concentration of 10 μM against the 5-HT7 serotonin receptor were measured. Further, the binding affinity (Ki) values of the inventive compounds having different Y structures at a concentration of 10 μM for the 5-HT7 serotonin receptor were measured.

5-HT2C = target: T2, 5-HT2C (Homo sapiens, UniProt P28335); assay: 5-HT2C receptor inhibition/binding (Tables 1-3)
T2 sequence (P28335 33-458): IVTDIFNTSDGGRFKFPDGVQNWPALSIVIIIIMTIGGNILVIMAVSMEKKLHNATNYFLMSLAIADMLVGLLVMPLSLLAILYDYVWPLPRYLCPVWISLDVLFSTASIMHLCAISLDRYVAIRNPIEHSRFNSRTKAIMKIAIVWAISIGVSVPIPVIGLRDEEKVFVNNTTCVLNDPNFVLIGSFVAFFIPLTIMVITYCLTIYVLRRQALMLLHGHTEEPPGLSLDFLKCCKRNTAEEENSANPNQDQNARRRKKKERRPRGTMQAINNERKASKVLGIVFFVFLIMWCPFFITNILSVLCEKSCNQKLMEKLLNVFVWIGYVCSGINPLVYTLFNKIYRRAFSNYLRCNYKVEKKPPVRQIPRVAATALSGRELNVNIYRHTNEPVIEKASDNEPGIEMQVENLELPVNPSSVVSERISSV

5-HT1E = 5-HT1E (Homo sapiens, UniProt P28566); assay: 5-HT1E receptor inhibition (Table 1); type: binding
Chain of 5-HT1E (P28566 whole entry, species assumed): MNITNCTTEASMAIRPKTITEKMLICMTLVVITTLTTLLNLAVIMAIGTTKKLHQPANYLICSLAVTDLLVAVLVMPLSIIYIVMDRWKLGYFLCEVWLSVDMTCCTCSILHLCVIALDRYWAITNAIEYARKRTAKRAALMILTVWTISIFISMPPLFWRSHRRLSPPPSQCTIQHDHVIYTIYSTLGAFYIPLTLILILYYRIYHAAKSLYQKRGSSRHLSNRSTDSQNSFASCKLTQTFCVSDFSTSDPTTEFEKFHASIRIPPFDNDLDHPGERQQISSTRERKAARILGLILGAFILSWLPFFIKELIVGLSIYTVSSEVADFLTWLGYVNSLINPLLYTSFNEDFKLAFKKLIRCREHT

5-HT1A = target: T3, 5-HT1A (Homo sapiens, UniProt P08908); assay: 5-HT1A receptor inhibition (Table 3); type: binding
T3 sequence (P08908 1-422): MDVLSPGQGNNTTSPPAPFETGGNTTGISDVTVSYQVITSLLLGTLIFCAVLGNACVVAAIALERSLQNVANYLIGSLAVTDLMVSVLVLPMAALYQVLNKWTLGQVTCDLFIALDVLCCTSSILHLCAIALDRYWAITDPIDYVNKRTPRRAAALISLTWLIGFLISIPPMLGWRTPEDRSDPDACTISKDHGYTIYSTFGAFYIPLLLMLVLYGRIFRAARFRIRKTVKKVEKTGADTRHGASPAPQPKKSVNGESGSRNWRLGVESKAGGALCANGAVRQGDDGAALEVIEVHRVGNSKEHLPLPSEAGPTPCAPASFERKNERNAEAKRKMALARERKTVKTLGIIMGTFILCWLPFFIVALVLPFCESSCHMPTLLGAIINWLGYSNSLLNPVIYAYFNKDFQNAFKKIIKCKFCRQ

5-HT6 = 5-HT6 (Homo sapiens, UniProt P50406); assay: 5-HT6 receptor inhibition/binding (Tables 2-3); details: 10 μM
Chain of 5-HT6 (P50406 whole entry, species assumed): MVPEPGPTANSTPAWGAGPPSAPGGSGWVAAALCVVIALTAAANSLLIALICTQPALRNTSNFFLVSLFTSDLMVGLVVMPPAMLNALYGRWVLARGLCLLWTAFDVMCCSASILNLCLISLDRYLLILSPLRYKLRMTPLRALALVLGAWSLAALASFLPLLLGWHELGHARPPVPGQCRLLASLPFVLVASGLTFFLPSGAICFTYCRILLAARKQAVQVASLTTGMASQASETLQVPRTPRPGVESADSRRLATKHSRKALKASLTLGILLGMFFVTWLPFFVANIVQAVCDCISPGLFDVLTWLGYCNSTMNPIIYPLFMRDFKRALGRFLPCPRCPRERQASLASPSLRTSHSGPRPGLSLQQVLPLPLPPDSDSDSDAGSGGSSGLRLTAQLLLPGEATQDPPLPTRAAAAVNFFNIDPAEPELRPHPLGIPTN

| Compound | Ki [1] | inhibition at 10 µM [1] | inhibition at 10 µM (5-HT2C) | inhibition at 10 µM (5-HT1E) | Ki (5-HT2C) | inhibition at 10 µM (5-HT1A) | inhibition at 10 µM (5-HT6) |
| --- | --- | --- | --- | --- | --- | --- | --- |
| O=C(CCCCN1CCCC1)n1c2ccccc2c2ccccc21 [Example 2.19, 1-(9H-carbazol-9-yl)-5-(pyrrolidin-1-yl)pentan-1-one hydrochloride] | 2160 nM | 57.4% | 45% | 16.3% | – | – | – |
| CC1CC(C)CN(CCCCCCn2c3ccccc3c3ccccc32)C1 (stereo not shown) [Example 2.40, 9-(6-(3,5-Dimethylpiperidin-1-yl)hexyl)-9H-carbazole] | 1600 nM | 57.7% | – | -7.3% | – | – | – |
| CC1CCN(CCCCC(=O)n2c3ccccc3c3ccccc32)CC1 [Example 2.20, 1-(9H-carbazol-9-yl)-5-(4-methylpiperidin-1-yl)pentan-1-one hydrochloride] | 592 nM | 80.2% | 44.4% | -19.3% | – | – | – |
| CC1CC(C)CN(CCCCC(=O)n2c3ccccc3c3ccccc32)C1 (stereo not shown) [Example 2.22, 1-(9H-carbazol-9-yl)-5-(3,5-dimethylpiperidin-1-yl)pentan-1-one hydrochloride] | 1400 nM | 67.6% | 52.1% | -10.5% | 852 nM | – | – |
| COc1ccccc1N1CCN(CCCCCC(=O)n2c3ccccc3c3ccccc32)CC1 [Example 2.16, 1-(9H-carbazol-9-yl)-6-(4-(2-methoxyphenyl)piperazin-1-yl)hexan-1-one] | 74 nM | 102% | 55.8% | – | – | 108% | 30.7% |
| CN(CCCCCC(=O)n1c2ccccc2c2ccccc21)Cc1ccccc1 [Example 2.2, 6-(Benzyl)methyl)amino)-1-(9H-carbazol-9-yl)hexan-1-one hydrochloride] | – | 92% | 54.6% | 10.2% | 1320 nM | – | – |
| CN(CCCCCCn1c2ccccc2c2ccccc21)Cc1ccccc1 [Example 2.36, N-Benzyl-6-(9H-carbazol-9-yl)-N-methylhexane-1-amine] | 1980 nM | 64% | – | -13.2% | – | – | – |
| CC(=O)N1CCN(CCCCCC(=O)n2c3ccccc3c3ccccc32)CC1 [Example 2.11, 6-(4-Acetylpiperazin-1-yl)-1-(9H-carbazol-9-yl)hexan-1-one hydrochloride] | 2340 nM | 72.1% | 51.3% | – | – | 51.8% | 24.5% |
| CCCCN(C)CCCCCC(=O)n1c2ccccc2c2ccccc21 [Example 2.1, 6-(Butyl(methyl)amino)-1-(9H-carbazol-9-yl)hexan-1-one hydrochloride] | 680 nM | 82.8% | 87.4% | 51.3% | 207 nM | – | – |
| c1ccc2c(c1)c1ccccc1n2CCCCCCN1CCCC1 [Example 2.37, 9-(6-(Pyrrolidin-1-yl)hexyl)-9H-carbazole] | 1550 nM | 66.9% | – | 21.1% | – | – | – |
| CCCCN(C)CCCCC(=O)n1c2ccccc2c2ccccc21 [Example 2.17, 5-(Butyl(methyl)amino)-1-(9H-carbazol-9-yl)pentan-1-one hydrochloride] | 1280 nM | 50% | – | 73.9% | – | – | – |
| CN1CCN(CCCCCC(=O)n2c3ccccc3c3ccccc32)CC1 [Example 2.12, 1-(9H-carbazol-9-yl)-6-(4-methylpiperazin-1-yl)hexan-1-one hydrochloride] | 1910 nM | 50% | 82.5% | – | – | 5.5% | 77.6% |

The remaining lines, values ahead:

| Ki [1] | inhibition at 10 µM [1] | inhibition at 10 µM (5-HT2C) | inhibition at 10 µM (5-HT1E) | Ki (5-HT2C) | inhibition at 10 µM (5-HT1A) | inhibition at 10 µM (5-HT6) | Compound |
| --- | --- | --- | --- | --- | --- | --- | --- |
| 909 nM | 75.6% | – | 1.5% | – | – | – | CC1CCCN(CCCCCCn2c3ccccc3c3ccccc32)C1 (stereo not shown) [Example 2.39, 9-(6-(3-Methylpiperidin-1-yl)hexyl)-9H-carbazole] |
| 952 nM | 71.3% | – | 2.7% | – | – | – | c1ccc2c(c1)c1ccccc1n2CCCCCCN1CCCCCC1 [Example 2.41, 9-(6-(Azepan-1-yl)hexyl)-9H-carbazole] |
| 616 nM | 86% | 77.2% | 1.8% | 411 nM | – | – | O=C(CCCCCN1CCCCCC1)n1c2ccccc2c2ccccc21 [Example 2.7, 6-(Azepan-1-yl)-1-(9H-carbazol-9-yl)hexan-1-one hydrochloride] |
| 550 nM | 84.6% | 86.6% | -15.3% | 486 nM | – | – | CC1CCCN(CCCCCC(=O)n2c3ccccc3c3ccccc32)C1 (stereo not shown) [Example 2.5, 1-(9H-carbazol-9-yl)-6-(3-methylpiperidin-1-yl)hexan-1-one hydrochloride] |
| 282 nM | 92% | 38% | – | – | 66.5% | 57.4% | O=C(CCCCN1CCN(Cc2ccccc2)CC1)n1c2ccccc2c2ccccc21 [Example 2.29, 5-(4-Benzylpiperazinyl)-1-(9H-carbazol-9-yl)pentan-1-one hydrochloride] |
| 833 nM | 77.2% | 80.6% | -21.9% | 454 nM | – | – | CC1CC(C)CN(CCCCCC(=O)n2c3ccccc3c3ccccc32)C1 (stereo not shown) [Example 2.6, 1-(9H-carbazol-9-yl)-6-(3,5-dimethylpiperidin-1-yl)hexan-1-one hydrochloride] |
| 949 nM | 77% | 55% | -11.7% | 1090 nM | – | – | O=C(CCCCN1CCCCCC1)n1c2ccccc2c2ccccc21 [Example 2.23, 5-(Azepan-1-yl)-1-(9H-carbazol-9-yl)pentan-1-one hydrochloride] |
| 597 nM | 82.9% | – | -9.4% | – | – | – | CC1CCN(CCCCCCn2c3ccccc3c3ccccc32)CC1 [Example 2.38, 9-(6-(4-Methylpiperidin-1-yl)hexyl)-9H-carbazole] |
| 511 nM | 70.7% | 59.4% | 55.7% | – | – | – | CCCCN(C)CCCCCCn1c2ccccc2c2ccccc21 [Example 2.35, N-Butyl-6-(9H-carbazol-9-yl)-N-methylhexane-1-amine] |
| 883 nM | 69.4% | 50% | -6% | – | – | – | CC1CCCN(CCCCC(=O)n2c3ccccc3c3ccccc32)C1 (stereo not shown) [Example 2.21, 1-(9H-carbazol-9-yl)-5-(3-methylpiperidin-1-yl)pentan-1-one hydrochloride] |
| 513 nM | 83.1% | 32.6% | -22.5% | – | – | – | CN(CCCCC(=O)n1c2ccccc2c2ccccc21)Cc1ccccc1 [Example 2.18, 5-(Benzyl(methyl)amino)-1-(9H-carbazol-9-yl)pentan-1-one hydrochloride] |
| 33 nM | 97.7% | 74.2% | – | – | 104% | 51.5% | COc1ccccc1N1CCN(CCCC(=O)n2c3ccccc3c3ccccc32)CC1 [Example 2.34, 1-(9H-carbazol-9-yl)-4-(4-(2-methoxyphenyl)piperazin-1-yl)butan-1-one] |
